Measured values from ChEMBL document CHEMBL1122097 (J Med Chem, 1982).

Assays:
[1] = Tested in vitro for its ability to displace 3[H] clozapine from non-muscarinic receptor in rat brain; format: tissue-based
[2] = biological target: Dopamine receptor; assay: Displacement of 3[H]spiroperidol from Dopamine receptor in rat brain
[3] = biological target: Muscarinic acetylcholine receptor; assay: Tested in vitro for its ability to displace 3[H] clozapine from Muscarinic acetylcholine receptor in rat brain; format: tissue-based

| Compound | IC50 [1] [nM] | IC50 [2] [nM] | IC50 [3] [nM] |
| --- | --- | --- | --- |
| CN1CCN(C2=Cc3cc(Cl)ccc3Cc3ccccc32)CC1 | 13 |  |  |
| CN1CCN(C2=Nc3ccccc3Nc3ccccc32)CC1 | 25 | > 10000 |  |
| CN1CCN(C2=Cc3ccccc3Cc3ccc(Cl)cc32)CC1 | 10 |  |  |
| CN1CCN(C2=Cc3ccccc3Cc3ccccc32)CC1 | 3.7 |  |  |
| CN1CCN(C2=Cc3cc(Cl)ccc3Oc3ccccc32)CC1 | 9.4 | 357 | 1970 |
| CN1CCN(C2=Cc3ccccc3Oc3ccccc32)CC1 | 4 | 1500 | 2290 |
| CN1CCN(C2=Cc3ccccc3Oc3ccc(Cl)cc32)CC1 | 7.3 | 27 | 2027 |
| CN1CCN(C2=Nc3cc(Cl)ccc3Nc3ccccc32)CC1 [CLOZAPINE] | 13 |  |  |
| CN1CCN(C2=Nc3ccccc3Nc3ccc(Cl)cc32)CC1 [ISOCLOZAPINE] | 17 |  | 28 |
